# Experimental data as given in patent US20210108199A1, “Treatment for aggressive cancers by targeting C9ORF72” (The Trustees of Columbia University in the City of New York, priority 2017, published 2021).
# Counter-ions that a name gives are not always drawn. Where a SMILES comes first, the peptide text is derived from it. The star is where a group is joined. Cbz = O=C(OCc1ccccc1)*; CH2F = FC*
# How the values were obtained:
# Type in all cases: cell-based
# [1] = test system: U87 cells; assay: Macropinocytosis inhibition with EIPA; conditions: C9 KD U87 cells, 20 μM EIPA vs DMSO
# Protocol: Cell were treated with control and C9 siRNA. After 6 hours, media were replaced and control and siC9 cells were either treated with DMSO or with 20 μM 5-(N-Ethyl-N-isopropyl) amiloride (Sigma™, A3085). After 3 days, cells were then imaged using Nikon Eclipse™ Ts2-FL Inverted Fluorescence Microscope and vacuoles from images were quantitated using ImageJ™.
# In another study to further confirm the macropinocytotic origin of the vacuoles, 5-(N-ethyl-N-isopropyl) amiloride (EIPA), a macropinocytosis inhibitor was used.
# FIG. 9 presents phase contrast images (40×) of U87 cells treated with control or C9 siRNA (SEQ ID NO;631) and incubated in DMSO (siCtrl+DMSO and siC9+DMSO, respectively) or in 20 μM Amiloride (siCtrl+EIPA 20 μM and siC9+EIPA 20 μM, respectively). The scale bar represents 10 μm. WB on the right represents C9 KD efficiency in EIPA treated U87 cells. […] Statistical significance was assessed by an unpaired t-test: NS P>0.05, *P≤0.05, **P≤0.01, ***P≤0.001 ****P≤0.0001.
# [2] = test system: U87 cells; assay: RAC1 inhibition with NSC23766, vacuoles per cell; conditions: C9 KD U87 cells, 100 μM NSC23766 vs DMSO, 3 days
# Protocol: Macropinocytosis is known to depends on RAC1 activation which induces membrane ruffling (through actin rearrangement) that mature into macropinosomes. If the accumulated vacuoles are of macropinocytotic origin, then inhibition of RAC1 should rescue their accumulation. To test this, cells were treated with control or C9 siRNA in combination with NSC23766 (NSC), a RAC1 inhibitor.
# FIG. 11A, FIG. 11B, FIG. 11C and FIG. 11D are a set of phase contrast images (20×) of U87 cells treated with control or C9 siRNA (SEQ ID NO:631) and incubated in DMSO (siCtrl+DMSO and siC9+DMSO, respectively) or in 100 μM RAC1 inhibitor NSC23766 (siCtrl+NSC and siC9+NSC, respectively). The scale bar represents 10 μm. […] FIG. 12 is a graph representing quantitation of the data for U87 cells treated with control (n=76) siRNA and DMSO (blue dots), U87 cells treated with C9 siRNA (n=41) with DMSO (red squares), U87 cells treated with control (n=74) siRNA and 100 μm of NSC (green dots), and U87 cells treated with C9 siRNA (n=73) with 100 μm of NSC (purple dots). Statistical significance was assessed by an unpaired t-test: NS P>0.05, *P≤0.05, **P≤0.01, ***P≤0.001 ****P≤0.0001.
# [3] = test system: U87 cells; assay: Viability rescue with caspase inhibitor Z-VAD-FMK
# Protocol: For viability assays (performed in 6-well plates), cells were harvested using trypsin (0.5 ml per well) and the media were saved from each well. The saved media was re-suspended with the trypsinised cells and 2-3 aliquots (50 μL each) of this suspension were taken into a 96-well plates. CellTiter-Glo™ (CTG) Luminescent Viability assay was used to measure the viability of these aliquots. CTG-media mixture (150 μL) were added to each well. The rest of the culture was used to extract protein. The viability of cells was measured using the 1:1 dilution of the CellTiter-Glo™ Luminescent reagent (Promega™, cat #G7573) with media, which was read on Victor™ 5 plate reader after 10 minutes of shaking at room temperature. The intensity of luminescence was normalized to that of the DMSO (Sigma™, D5879) control.
# To confirm that cells undergo non-apoptotic death, apoptosis was blocked with a broad caspase inhibitor Z-VAD-FMK upon C9 KD. […] Additionally, the apoptosis inducer, staurosporine (STS), was used to asses Z-VAD-FMK efficacy. […] A beta galactosidase staining technique was used to asses senescence upon C9 KD. […] See FIG. 20, for which U87 cells were treated with control (siCtrl) and C9 (siC9; SEQ ID NO:631) siRNA and then subjected to β-Galactosidase Staining.
# [4] = test system: p53; assay: p53 western blot in p53 null U87 cells treated with doxorubicin; conditions: p53 null U87 cells (KO #4)
# Protocol: To generate p53 knockout clones, U87 cells (7×10^5) were transfected with 2 μg p53 CRISPR/Cas9 KO plasmid (Santa Cruz Biotech™, sc-416469) using Lipofectamine 2000 (ThermoFisher™). Two days later, cells were treated with Nutlin-3 (10 μM) for 12 days to inhibit proliferation of cells with wild type p53, thereby enriching for p53 knockout cells. Single-cell clones were selected via limiting dilution, and p53 knockout clones were confirmed by western blotting using p53 antibody (FL-393).
# To further validate the dependency of vacuolization on p53, two p53 null cell lines were generated using CRISPR. First, the cells lack of p53 was validated by treating them doxorubicin, […]. […] See FIG. 31, which is a WB showing p53 levels in wtp53 U87 (WT p53) cells and in p53 null U87 cells treated with DMSO (KO #4+DMSO) or DOX (KO #4+DOX).
# [5] = test system: U87 cells; assay: TUNEL assay for DNA breaks; conditions: vs control
# Protocol: Cells were treated with control and C9 siRNA for three days. On day three, cells were collected for TUNEL assay using the FlowTACS kit (TREVIGEN™, 4817-60-K) according to manufacturer's instructions to detect DNA fragmentation. For a positive control, DNA damage was induced using doxorubicin. Data were collected on a FACSCalibur™ flow cytometer (Becton Dickinson™) and data analysis performed on FlowJo™.
# ROS can cause oxidative DNA damage. Since elevated ROS levels were observed under C9 KD conditions, it may cause increase in DNA damage. To test this hypothesis, a TUNEL assay was used to measure DNA breaks. […] In addition to C9KD, U87 cells were treated with a known chemotherapeutic DNA damage-inducing drug to serve as a positive control for DNA damage (see FIG. 23). FIG. 23 presents data for the TUNEL assay of U87 cells treated as described for FIG. 21 and for positive DNA-damage control with 0.5 μM doxorubicin (DOX). FIG. 23A presents data for the percentage of cells with DNA fragmentation (shown by DNA damage) comparing control (siCtrl) C9 KD (siC9; SEQ ID NO:631) and DOX-treated cells as measured by FACS analysis. […] FIG. 24 is a set of graphs showing data for cells treated as described for FIG. 23, with the exception of using a different C9 siRNA, indicated as siC9 #2 (SEQ ID NO:633).
# [6] = test system: p53; assay: Western blot of phospho-p53, p53 and p21; conditions: U87 cells
# Protocol: For Western blot analysis, cells were lysed with lysis buffer (20 mM sodium phosphate (pH 7.0), 250 mM NaCl, 30 mM sodium pyrophosphate, 0.1% Nonidet™ P-40, 5 mM EDTA, 10 mM NaF, 0.1 mM Na3VO4, and 1 mM PMSF) supplemented with complete protease inhibitors (Roche™) and homogenized by passage through a 28 gauge needle. Protein concentration was measured with a Bio-Rad™ protein assay dye reagent and results were read using a spectrophotometer (BiophotometerPlus™ by Eppendorf™). Protein extracts were resolved by SDS PAGE on gradient (Thermo Fisher™) or 12% gels. Proteins were then electrotransferred at 350 mA for 80 minutes onto a PVDF membrane (Immobilon-P PVDF). Membranes were blocked with PBST with 5% milk and 1% BSA for 30 minutes. Quantitation of blots was performed Image Studio Lite software (LI-COR Biosciences™).
# One of the responses to DNA damage is activation of p53 by ATM. Upon DNA damage, ATM activation leads to p53 phosphorylation, which activates p53 as a transcription factor. Since increased DNA damage was observed upon C9 KD, whether p53 is activated in C9 depleted cells was investigated. First, total p53 levels were measured in U87 cells treated with control and two independent siRNAs against C9. […] Then, the levels of phosphorylated (active) p53 (at s15) was measured. Phosphorylation of s15 on p53 was increased in both C9 siRNA samples.
compound,measurement,setting,value
"CCN(c1nc(N)c(C(=O)NC(=N)N)nc1Cl)C(C)C [EIPA, 5-(N-ethyl-N-isopropyl) amiloride]",vacuole formation,[1],significant inhibition of vacuole formation
CCN(CC)CCCC(C)Nc1nc(C)cc(Nc2ccc3nc(C)cc(N)c3c2)n1 (stereo not drawn) [NSC23766],vacuoles per cell,[2],significant drop in vacuoles
COC(=O)C[C@H](NC(=O)[C@H](C)NC(=O)[C@@H](NC(=O)OCc1ccccc1)C(C)C)C(=O)CF [Z-VAD-FMK] (Cbz-Val-Ala-Asp(OMe)-CH2F),rescue of cell viability,[3]; C9 KD U87 cells,did not significantly rescue
same,rescue of cell viability,[3]; staurosporine (STS) treated U87 cells,able rescue viability
"COc1cccc2c1C(=O)c1c(O)c3c(c(O)c1C2=O)C[C@@](O)(C(=O)CO)C[C@@H]3O[C@H]1C[C@H](N)[C@H](O)[C@H](C)O1 [doxorubicin, Doxorubicin hydrochloride]",p53 accumulation,[4],did not induce p53 accumulation
siC9 #2: siRNA targeting C9 mRNA: GCACAUAUGGACUAUCAAUtt (SEQ ID NO:633; sense) and AUUGAUAGUCCAUAUGUGCtg (SEQ ID NO:634; antisense) (sense GCACAUAUGGACUAUCAAUTT; antisense AUUGAUAGUCCAUAUGUGCTG; chemistry not given here),DNA breaks (TUNEL),[5],increase in DNA breaks
same,p21 protein levels,[6],increased p21 protein levels
same,phosphorylation of s15 on p53,[6],increased
same,total p53 levels,[6],elevates p53 levels
